Patent US20080274892A1, “Novel Haloalkylsulfonanilide Derivative, Herbicide, and Method of Use Thereof” (priority 2005, published 2008)

Tests used:
[1] = tested on: paddy rice plant (cultivar: Nihonbare); assay: Test Example 3: phytotoxicity test for transplanted paddy rice plant; type: in vivo; settings: transplanted rice, 21 days after treatment
Summary of the method: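 Clay loam soil was placed in a 75 cm^2 plastic pot and flooded to a water depth of 5 cm. Two Nihonbare paddy rice plants at the two-leaf stage were transplanted 1 cm deep and grown in a hot house. After treatment, pots stayed in the hot house for 21 days, and phytotoxicity was then graded against an untreated control.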

false pimpernel [2] = assay: Test Example 2: herbicidal efficacy on rice paddy weeds post-emergence; type: in vivo, Lindernia pyxidaria; settings: post-emergence, one leaf stage, 21 days after treatment
bulrush [3] = assay: as above; type: in vivo, Scirpus juncoides; settings: post-emergence, one leaf stage, 21 days after treatment
[4] = tested on: transplanted paddy rice plant and Bulrush; assay: Test Example 5: selectivity between transplanted paddy rice plant and weeds; type: in vivo; settings: (highest dosage with no phytotoxicity to paddy rice)/(lowest dosage with effective level 4 on Bulrush); rice 3000-100 g/ha, Bulrush 300-10 g/ha; 21 days
Summary of the method: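 Transplanted paddy rice was treated at 3000, 1000, 300 and 100 g/ha active ingredient for phytotoxicity, and post-emergence bulrush at 300, 100, 30 and 10 g/ha. Plants were kept in a hothouse for 21 days. Growth inhibition versus untreated control was scored 0–4 (0%, 1–39%, 40–69%, 70–89%, 90–100%).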

false pimpernel [5] = assay: Test Example 1: herbicidal efficacy on rice paddy weeds pre-emergence; type: in vivo, Lindernia pyxidaria; settings: 21 days
barnyard glass = assay: Test Example 2: herbicidal efficacy on rice paddy weeds post-emergence; type: in vivo, Echinochloa crus-galli; settings: post-emergence, one leaf stage, 21 days after treatment
Summary of the method: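 Plastic pots of 75 cm^2 were filled with clay loam soil and sown with barnyard glass and bulrush seeds, then topped with 75 cm^3 soil containing false pimpernel seeds. The pots were flooded to 5 cm water depth and held in a hot house. Twenty-one days after treatment, herbicidal efficacy was graded against an untreated control.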

bulrush [6] = assay: Test Example 1: herbicidal efficacy on rice paddy weeds pre-emergence; type: in vivo, Scirpus juncoides; settings: 21 days
bulrush [7] = assay: Test Example 4: low dosage test for rice paddy weeds; type: in vivo, Scirpus juncoides; settings: 300 g/ha as an active ingredient; plants treated at the one leaf stage; 21 days after treatment; vs untreated control
Summary of the method: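 Bulrush sown in clay loam pots, flooded to 5 cm water in a hot house, treated at the one-leaf stage with formulated compound at 300 g/ha. Efficacy scored 0–4 against untreated control 21 days after treatment (4 = 90–100%, 0 = 0% inhibition).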

[8] = dosage 1000 g/ha, treated 5 days after transplantation

Compound	Phytotoxicity to paddy rice ([1]; dosage 100 g/ha as printed in the table line)	False pimpernel post (herbicidal efficacy grade) (false pimpernel [2]; dosage 100 g/ha)	Bulrush post (herbicidal efficacy grade) (bulrush [3]; dosage 100 g/ha)	Selective Index [4]	False pimpernel pre (herbicidal efficacy grade) (false pimpernel [5]; dosage 100 g/ha)	Burnyard grass post (herbicidal efficacy grade) (barnyard glass; dosage 100 g/ha)	Bulrush pre (herbicidal efficacy grade) (bulrush [6]; dosage 100 g/ha)	Herbicide effect to Bulrush (bulrush [7])	Phytotoxicity to paddy rice [1, 8]	False pimpernel post (herbicidal efficacy grade) (false pimpernel [2]; dosage 1000 g/ha)	Bulrush post (herbicidal efficacy grade) (bulrush [3]; dosage 1000 g/ha)	False pimpernel pre (herbicidal efficacy grade) (false pimpernel [5]; dosage 1000 g/ha)	Burnyard grass post (herbicidal efficacy grade) (barnyard glass; dosage 1000 g/ha)	Bulrush pre (herbicidal efficacy grade) (bulrush [6]; dosage 1000 g/ha)	Phytotoxicity to paddy rice ([1]; dosage 300 g/ha)	False pimpernel post (herbicidal efficacy grade) (false pimpernel [2]; dosage 300 g/ha)	Bulrush post (herbicidal efficacy grade) (bulrush [3]; dosage 300 g/ha)	False pimpernel pre (herbicidal efficacy grade) (false pimpernel [5]; dosage 300 g/ha)	Burnyard grass post (herbicidal efficacy grade) (barnyard glass; dosage 300 g/ha)	Bulrush pre (herbicidal efficacy grade) (bulrush [6]; dosage 300 g/ha)
CCCCC1(C)CN(Cc2ccccc2N(C(=O)OCC)S(=O)(=O)C(F)(F)F)C(=O)O1 (centres unmarked) [1-129]	1 (1%-39% of herbicidal efficacy or phytotoxicity)	3 (70%-89% of herbicidal efficacy or phytotoxicity)	4 (90%-100% of herbicidal efficacy or phytotoxicity)	10	4 (90%-100% of herbicidal efficacy or phytotoxicity)	3 (70%-89% of herbicidal efficacy or phytotoxicity)	2 (40%-69% of herbicidal efficacy or phytotoxicity)	4 (90%-100% of herbicidal efficacy or phytotoxicity)	–	–	–	–	–	–	–	–	–	–	–	–
CCCC1(CC)CN(Cc2ccccc2NS(=O)(=O)C(F)(F)F)C(=O)O1 (centres unmarked) [1-130]	–	–	–	10	–	–	–	4 (90%-100% of herbicidal efficacy or phytotoxicity)	1 (1%-39% of herbicidal efficacy or phytotoxicity)	4 (90%-100% of herbicidal efficacy or phytotoxicity)	4 (90%-100% of herbicidal efficacy or phytotoxicity)	4 (90%-100% of herbicidal efficacy or phytotoxicity)	4 (90%-100% of herbicidal efficacy or phytotoxicity)	4 (90%-100% of herbicidal efficacy or phytotoxicity)	–	–	–	–	–	–
CCC1(C(C)C)CN(Cc2ccccc2NS(=O)(=O)C(F)(F)F)C(=O)O1 (centres unmarked) [1-131]	–	–	–	10	–	–	–	4 (90%-100% of herbicidal efficacy or phytotoxicity)	2 (40%-69% of herbicidal efficacy or phytotoxicity)	4 (90%-100% of herbicidal efficacy or phytotoxicity)	4 (90%-100% of herbicidal efficacy or phytotoxicity)	4 (90%-100% of herbicidal efficacy or phytotoxicity)	4 (90%-100% of herbicidal efficacy or phytotoxicity)	4 (90%-100% of herbicidal efficacy or phytotoxicity)	–	–	–	–	–	–
CCCC1(CC)CN(Cc2ccccc2N(C(=O)OCC(C)C)S(=O)(=O)C(F)(F)F)C(=O)O1 (centres unmarked) [1-132]	–	–	–	10	–	–	–	4 (90%-100% of herbicidal efficacy or phytotoxicity)	1 (1%-39% of herbicidal efficacy or phytotoxicity)	4 (90%-100% of herbicidal efficacy or phytotoxicity)	4 (90%-100% of herbicidal efficacy or phytotoxicity)	4 (90%-100% of herbicidal efficacy or phytotoxicity)	4 (90%-100% of herbicidal efficacy or phytotoxicity)	4 (90%-100% of herbicidal efficacy or phytotoxicity)	–	–	–	–	–	–
CCC1(C(C)C)CN(Cc2ccccc2N(C(=O)OCC(C)C)S(=O)(=O)C(F)(F)F)C(=O)O1 (centres unmarked) [1-133]	–	–	–	10	–	–	–	4 (90%-100% of herbicidal efficacy or phytotoxicity)	1 (1%-39% of herbicidal efficacy or phytotoxicity)	4 (90%-100% of herbicidal efficacy or phytotoxicity)	4 (90%-100% of herbicidal efficacy or phytotoxicity)	4 (90%-100% of herbicidal efficacy or phytotoxicity)	4 (90%-100% of herbicidal efficacy or phytotoxicity)	4 (90%-100% of herbicidal efficacy or phytotoxicity)	–	–	–	–	–	–
CCC1(CC)CN(Cc2ccccc2N(C(=O)OCCOC)S(=O)(=O)C(F)(F)F)C(=O)O1 [1-134]	–	–	–	10	–	–	–	4 (90%-100% of herbicidal efficacy or phytotoxicity)	1 (1%-39% of herbicidal efficacy or phytotoxicity)	4 (90%-100% of herbicidal efficacy or phytotoxicity)	4 (90%-100% of herbicidal efficacy or phytotoxicity)	4 (90%-100% of herbicidal efficacy or phytotoxicity)	4 (90%-100% of herbicidal efficacy or phytotoxicity)	4 (90%-100% of herbicidal efficacy or phytotoxicity)	–	–	–	–	–	–
CC1(C(F)(F)F)CN(Cc2ccccc2NS(=O)(=O)C(F)(F)F)C(=O)O1 (centres unmarked) [1-135]	–	–	–	3	–	–	–	3 (70%-89% of herbicidal efficacy or phytotoxicity)	–	–	–	–	–	–	1 (1%-39% of herbicidal efficacy or phytotoxicity)	4 (90%-100% of herbicidal efficacy or phytotoxicity)	4 (90%-100% of herbicidal efficacy or phytotoxicity)	4 (90%-100% of herbicidal efficacy or phytotoxicity)	2 (40%-69% of herbicidal efficacy or phytotoxicity)	4 (90%-100% of herbicidal efficacy or phytotoxicity)
CC(C)COC(=O)N(c1ccccc1CN1CC(C)(C(F)(F)F)OC1=O)S(=O)(=O)C(F)(F)F (centres unmarked) [1-136]	–	–	–	10	–	–	–	4 (90%-100% of herbicidal efficacy or phytotoxicity)	1 (1%-39% of herbicidal efficacy or phytotoxicity)	4 (90%-100% of herbicidal efficacy or phytotoxicity)	4 (90%-100% of herbicidal efficacy or phytotoxicity)	4 (90%-100% of herbicidal efficacy or phytotoxicity)	4 (90%-100% of herbicidal efficacy or phytotoxicity)	4 (90%-100% of herbicidal efficacy or phytotoxicity)	–	–	–	–	–	–
COC(=O)N(c1ccccc1CN1CC(C)(c2ccccc2)OC1=O)S(=O)(=O)C(F)(F)F (centres unmarked) [1-142]	–	–	–	≧30	–	–	–	4 (90%-100% of herbicidal efficacy or phytotoxicity)	1 (1%-39% of herbicidal efficacy or phytotoxicity)	4 (90%-100% of herbicidal efficacy or phytotoxicity)	4 (90%-100% of herbicidal efficacy or phytotoxicity)	4 (90%-100% of herbicidal efficacy or phytotoxicity)	4 (90%-100% of herbicidal efficacy or phytotoxicity)	4 (90%-100% of herbicidal efficacy or phytotoxicity)	–	–	–	–	–	–
COC(=O)N(c1ccccc1CN1CC(C)(C(F)(F)F)OC1=O)S(=O)(=O)C(F)(F)F (centres unmarked) [1-143]	–	–	–	10	–	–	–	4 (90%-100% of herbicidal efficacy or phytotoxicity)	1 (1%-39% of herbicidal efficacy or phytotoxicity)	4 (90%-100% of herbicidal efficacy or phytotoxicity)	4 (90%-100% of herbicidal efficacy or phytotoxicity)	4 (90%-100% of herbicidal efficacy or phytotoxicity)	4 (90%-100% of herbicidal efficacy or phytotoxicity)	4 (90%-100% of herbicidal efficacy or phytotoxicity)	–	–	–	–	–	–
